The results in this text go back to patent US11034695B2, “Dopamine-β-hydroxylase inhibitors” (BIAL—PORTELA & Ca, S.A., priority 2016, dated 2021).

The test has as its target T1, Dopamine beta hydroxylase activity in human plasma (Homo sapiens, UniProt P09172).
T1 construct: 125 μl of plasma (or saline for blank reaction or standard curve); tissue Instituto Português do Sangue Transplantação; host or cells: human plasma from healthy donors
T1 sequence (P09172 40-617 limits assumed): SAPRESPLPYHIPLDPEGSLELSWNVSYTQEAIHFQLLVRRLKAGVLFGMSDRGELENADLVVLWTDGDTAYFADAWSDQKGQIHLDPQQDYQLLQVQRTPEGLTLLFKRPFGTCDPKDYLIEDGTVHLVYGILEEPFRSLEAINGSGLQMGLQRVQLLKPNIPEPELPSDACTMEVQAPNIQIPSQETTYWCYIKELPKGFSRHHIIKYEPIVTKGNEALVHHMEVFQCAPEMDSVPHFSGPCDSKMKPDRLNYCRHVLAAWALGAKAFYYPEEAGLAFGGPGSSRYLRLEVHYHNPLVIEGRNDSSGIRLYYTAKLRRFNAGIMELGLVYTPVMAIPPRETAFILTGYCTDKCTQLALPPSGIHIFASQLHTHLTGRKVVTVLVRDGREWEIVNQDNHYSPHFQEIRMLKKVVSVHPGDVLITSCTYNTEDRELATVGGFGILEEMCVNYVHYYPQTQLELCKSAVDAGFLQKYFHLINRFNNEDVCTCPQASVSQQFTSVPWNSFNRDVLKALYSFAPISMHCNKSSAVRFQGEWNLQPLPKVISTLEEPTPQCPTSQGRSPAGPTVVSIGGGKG
The test is described as follows: DβH activity in human plasma. It counts as biochemical. As to conditions: read-out: DβH activity in % of Ctrl (0.1 μM), human plasma assay. As to the method: Furthermore, the ability of a compound to inhibit DβH activity may be assessed in human plasma using the following assay. […]. Dopamine beta hydroxylase activity in human plasma was measured by the method previously developed (Nagatsu, T. and Udenfriend, S. Photometric assay of dopamine-β-hydroxylase activity in human blood. Clin. Chem. 18(9) 980-983, 1972) with minor modifications. Catalase, N-ethylmaleimide, tyramine, disodium fumarate, pargyline, sodium acetate, ascorbic acid, copper sulfate and octopamine were obtained from Sigma Chemical Co., St. Louis, Mo. 63178. Human plasma samples were obtained from healthy donors (Instituto Português do Sangue Transplantação, Centro Sangue Transplantação, Porto, Portugal). From date of collection, plasma was stored at −80° C. until use. Test compounds were initially prepared in dimethyl sulfoxide at a concentration of 10 mM and diluted in dimethyl sulfoxide to the required concentrations. Test compounds were further diluted in ultrapure water to a concentration 20-fold to that of the final concentration to be tested. Final concentrations of test compounds were 10, 100 and 1000 nM. The various reagents used to make up the incubation buffer were premixed and consisted of the following components: sodium acetate buffer (1 M, pH 5.0, 18 ml), sodium fumarate (0.2 M, 4.5 ml), ascorbic acid (0.2 M, 4.5 ml, freshly prepared), pargyline (20 mM, freshly prepared, 4.5 ml), N-ethylmaleimide (0.2 M, 4.5 ml), catalase (10 000 U/ml, 9 ml), copper sulfate (20 μM, 4.5 ml) and 4.5 ultrapure water. The standard incubation mixture (total volume, 950 μl) contained: 50 μL of compound or vehicle (dimethyl sulfoxide 2%); 700 μL of incubation buffer; 125 μl of plasma (or saline for blank reaction or standard curve); 75 μl of saline. The reaction mixture was placed in water bath, shaking at 37° C. and pre-incubated for 10 minutes. Tyramine (0.5 M) was added and incubation proceeded for 45 minutes. The reaction contents were exposed to air. A sample of enzyme preparation (with 125 μl of plasma) that had been added perchloric acid 2 M at the end of the pre-incubation period was used as blank. A blank for each of the tested compounds was used. For octopamine standard curve, perchloric acid 2 M was replaced by increasing concentrations of octopamine prepared in perchloric acid 2 M (0.5, 1, 2.5, 5, 7.5, 10, 15, 20 μg/ml, final concentration). The incubation was stopped by adding 200 μl of 2 M molar perchloric acid, and the mixture was centrifuged at 9000 g for 5 min. The supernatant fluid (800 μL) was transferred to a column (SPE cartridge ISOLUTE SCX-3, 100 mg) and centrifuged at 150 g for 2 min. The column was washed two more times with 0.5 ml of ultrapure water by centrifuging at 150 g for 2 min. The adsorbed octopamine was eluted twice with 0.3 ml of 4 M ammonium hydroxide by centrifuging at 150 g for 2 min. Octopamine in the eluate was then converted to p-hydroxybenzaldehyde by adding 200 μl of sodium periodate (2%) and incubating for 6 min. Excess periodate was than reduced by adding 200 μl of sodium metabisulfite (10%). Absorbance was measured at […] in a 96-well plate by use of a SpectraMAX plus 384 (Molecular Devices) with software SOFTmax® PRO Software 5.3 spectrophotometer. Absorbance was linear with octopamine concentration from 0.5 to 20 μg/ml. Dopamine beta hydroxylase activity is determined as nmol of octopamine formed/ml of plasma/hour and effect of compounds is presented as % control.
Results are reported in the table below (inside brackets) as activity in % of control at the inhibitor concentration tested.

Setting [1] is: 0.1 μM inhibitor, human plasma, numbers in brackets.

Where two headings read alike, the source gives them in different places.

For `Cc1[nH]c(=S)n2c1C[C@H](c1c(F)c(F)cc(F)c1F)C2` [Example 5, (R)-1-methyl-6-(2,3,5,6-tetrafluorophenyl)-2,5,6,7-tetrahydro-3H-pyrrolo[1,2-c]-imidazole-3-thione], under setting [1], the remaining activity at 0.1 µM was found to be 57.3%.
Turning to `Cc1[nH]c(=S)n2c1C[C@@H](c1c(F)c(F)cc(F)c1F)C2` [Example 6, (S)-1-methyl-6-(2,3,5,6-tetrafluorophenyl)-2,5,6,7-tetrahydro-3H-pyrrolo[1,2-c]imidazole-3-thione], the remaining activity at 0.1 µM under setting [1] was 74.1%.
Regarding `Cc1[nH]c(=S)n2c1[C@@H]1C[C@]1(c1cc(Cl)ccc1F)C2` [Example 8, (5aS,6aR)-5a-(5-chloro-2-fluorophenyl)-1-methyl-5,5a,6,6a-tetrahydrocyclopropa[3,4]pyrrolo[1,2-c]imidazole-3(2H)-thione], the remaining activity at 0.1 µM under setting [1] was found to be 38.3%.
`Cc1[nH]c(=S)n2c1[C@@H]1C[C@]1(c1cc(Br)ccc1F)C2` [Example 13, (5aS,6aR)-5a-(5-bromo-2-fluorophenyl)-1-methyl-5,5a,6,6a-tetrahydrocyclopropa[3,4]pyrrolo[1,2-c]imidazole-3(2H)-thione]: the remaining activity at 0.1 µM is 9.8%.
Consider `Cc1[nH]c(=S)n2c1[C@@H]1C[C@]1(c1c(F)ccc(Cl)c1F)C2` [Example 14, (5aS,6aR)-5a-(3-chloro-2,6-difluorophenyl)-1-methyl-5,5a,6,6a-tetrahydrocyclopropa[3,4]pyrrolo[1,2-c]imidazole-3(2H)-thione], for which, under setting [1], the remaining activity at 0.1 µM stood at 4.7%.
Take `Cc1[nH]c(=S)n2c1C[C@H](c1c(F)ccc(Br)c1F)C2` [Example 15, (R)-6-(3-bromo-2,6-difluorophenyl)-1-methyl-2,5,6,7-tetrahydro-3H-pyrrolo[1,2-c]imidazole-3-thione]: the remaining activity at 0.1 µM under setting [1] came out at 23.8%.
On to `Cc1[nH]c(=S)n2c1C[C@@H](c1c(F)ccc(Br)c1F)C2` [Example 16, (S)-6-(3-bromo-2,6-difluorophenyl)-1-methyl-2,5,6,7-tetrahydro-3H-pyrrolo[1,2-c]imidazole-3-thione], for which the remaining activity at 0.1 µM under setting [1] came out at 12.1%.
On the same count and under the same terms, the figure for `Cc1[nH]c(=S)n2c1[C@@H]1C[C@]1(c1cc(F)cc(Cl)c1)C2` [Example 17, (5aS,6aR)-5a-(3-chloro-5-fluorophenyl)-1-methyl-5,5a,6,6a-tetrahydrocyclopropa[3,4]pyrrolo[1,2-c]imidazole-3(2H)-thione] is 49.9%; for `[2H]C([2H])([2H])c1[nH]c(=S)n2c1[C@@H]1C[C@]1(c1cc(Br)ccc1F)C2` [Example 18, (5aS,6aR)-5a-(5-bromo-2-fluorophenyl)-1-(methyl-d3)-5,5a,6,6a-tetrahydrocyclopropa[3,4]pyrrolo[1,2-c]imidazole-3(2H)-thione] it is 10%.
On to `Cc1[nH]c(=S)n2c1C[C@@H](c1cc(Br)ccc1F)C2` [Example 19, (S)-6-(5-bromo-2-fluorophenyl)-1-methyl-2,5,6,7-tetrahydro-3H-pyrrolo[1,2-c]imidazole-3-thione], for which the remaining activity at 0.1 µM under setting [1] is 39.1%.
For `Cc1[nH]c(=S)n2c1C[C@H](c1c(F)ccc(F)c1F)C2` [Example 20, (R)-1-methyl-6-(2,3,6-trifluorophenyl)-6,7-dihydro-2H-pyrrolo[1,2-c]imidazole-3(5H)-thione], under setting [1], the remaining activity at 0.1 µM came out at 27.7%.
As for `Cc1[nH]c(=S)n2c1C[C@H](c1cc(Br)ccc1F)C2` [Example 21, (R)-6-(5-bromo-2-fluorophenyl)-1-methyl-2,5,6,7-tetrahydro-3H-pyrrolo[1,2-c]imidazole-3-thione], under setting [1], the remaining activity at 0.1 µM was found to be 88.8%.
Turning to `Cc1[nH]c(=S)n2c1C[C@H](c1c(F)cccc1F)C2` [Example 22, (R)-6-(2,6-difluorophenyl)-1-methyl-2,5,6,7-tetrahydro-3H-pyrrolo[1,2-c]imidazole-3-thione], the remaining activity at 0.1 µM under setting [1] is 0.5%.
Consider `Cc1[nH]c(=S)n2c1C[C@@H](c1cc(Cl)ccc1F)C2` [Example 23, (S)-6-(5-chloro-2-fluorophenyl)-1-methyl-2,5,6,7-tetrahydro-3H-pyrrolo[1,2-c]imidazole-3-thione], for which, under setting [1], the remaining activity at 0.1 µM was determined as 67%.
